Experimental data: ChEMBL document CHEMBL4354883, “Design, Synthesis, and Biological Evaluation of HSP90 Inhibitor-SN38 Conjugates for Targeted Drug Accumulation” (J Med Chem, 2020)
The source made the active and inactive calls. The calls are words filed in the database; no cut-off is given here.

Key:
[1] = Drug uptake in human HL7702 cells at 5 uM after 6 hrs in presence of HSP90 ATPase competitive inhibitor, NVP-AUY922 by confocal laser scanning microscopic analysis; format: ADME, cell-based; settings: l02, 6 h
[2] = system: CAPAN-1; test: Antitumor activity against human Capan1 cells xenografted in mouse assessed as reduction in tumor weight at 50 mg/kg, iv for every 2 days and measured twice per week by caliper method; format: functional, organism-based
[3] = Drug uptake in mouse plasma xenografted with human Capan1 cells at 50 mg/kg, iv after 30 mins by LC-MS/MS analysis; format: ADME, organism-based; settings: in vivo, 0.5 h
[4] = Toxicity in heart of mouse xenografted with human Capan1 cells assessed as pathological changes at 50 mg/kg, iv for every 2 days measured at 2 hrs post last dose by H and E staining based analysis; format: organism-based; settings: in vivo
[5] = system: CAPAN-1; test: Antitumor activity against human Capan1 cells xenografted in mouse assessed as tumor cells with nuclear lysis at 36 mg/kg, iv for every 2 days measured at 2 hrs post last dose by H and E staining based analysis; format: functional, organism-based
[6] = Stability of compound in PBS buffer assessed as drug degradation at 50 uM at pH 7.4 measured after 12 hrs by HPLC analysis; format: physicochemical; settings: read-out: Drug degradation
[7] = system: CAPAN-1; test: Antitumor activity against human Capan1 cells xenografted in mouse assessed as reduction in tumor volume at 50 mg/kg, iv for every 2 days and measured twice per week by microcaliper method relative to control; format: functional
[8] = Toxicity in mouse xenografted with human Capan1 cells assessed as increase in body weight at 50 mg/kg, iv for every 2 days; format: organism-based; settings: in vivo, 48 h
[9] = Toxicity in lung of mouse xenografted with human Capan1 cells assessed as pathological changes at 50 mg/kg, iv for every 2 days measured at 2 hrs post-last dose by H and E staining based analysis; format: organism-based; settings: in vivo
[10] = Toxicity in liver of mouse xenografted with human Capan1 cells assessed as pathological changes at 50 mg/kg, iv for every 2 days measured at 2 hrs post last dose by H and E staining based analysis; format: organism-based; settings: in vivo

- Drug uptake [1]: Not Active
- Drug uptake [3]: Active
- degraded at 12 h, 50 µM [6]: 75%
SMILES: CCc1c2c(nc3ccc(O)cc13)-c1cc3c(c(=O)n1C2)COC(=O)[C@@]3(CC)OC(=O)CNC(=O)c1noc(-c2cc(C(C)C)c(O)cc2O)c1-c1ccc(CN2CCOCC2)cc1
- Activity [2]: Active
- Activity [4]: Non-Toxic
- Activity [5]: Active
- T/C [7]: 1.86%
- Activity [8]: 10%
- Activity [9]: Non-Toxic
- Activity [10]: Non-Toxic
